# Measured values reported in patent US5514561A, “Fluorogenic and chromogenic β-lactamase substrates” (priority 1994, dated 1996).
# Assays:
# Type in all cases: biochemical
# [1] = target: wildtype enzyme, TEM-1 β-lactamase (Escherichia coli, UniProt P62593); test: Kinetic rate determinations, wild type enzyme; settings: 300 sec, ranking among enzymes; for rate of cleavage (hydrolysis) of fluorogenic substrate: wild type enzyme, fluorescence 365/440 nm
# Experimental: (§1) The fluorogenic β-lactamase substrates of the invention were tested for their ability to be hydrolyzed by β-lactamase with release of the fluorescent moiety. The kinetics of hydrolysis were compared to the kinetics of hydrolysis of nitrocefin. The two fluorogenic substrates tested were hydrolyzed using three mutant β-lactamases found in cephem resistant bacteria to compare the rate of hydrolysis with the wildtype enzyme, TEM-1 (Ambler. Phil. Trans. R. Soc. Lond. 289: 321 (1980); Sougakoff et al. Reviews of Infectious Diseases 10: 879 (1988)).
# (§2) Nitrocefin kinetics were determined using a Hewlett-Packard 854A spectrophotometer with Chem Station programing, Hewlett-Packard Company Scientific Instruments Division (Palo Alto, Calif.). The data were fit to an unweighted Michaelis-Menten equation using the non-linear data regression package ENZFITTER (Elsevier-BIOSOFT, Cambridge, United Kingdom). The buffer used for all dilutions was 9:1 (50 mM phosphate buffer pH 7.2: DMSO), designated buffer A. The rate of hydrolysis for nitrocefin was determined at a range of 504-514 nm for 300 sec. […] Rates were determined using from 1-0.004 mL of nitrocefin solution diluted to 1 mL total with buffer A. Rate determining experiments were done using 9 different concentrations of the nitrocefin solution and a 1:25 dilution of each enzyme in buffer A.
# (§3) Fluorescence kinetics were determined on a Perkin-Elmer LS-5 fluorescence spectrometer Perkin-Elmer Corp. (Norwalk, Conn.) for duration of 300 sec. […] Rates were determined using the following solutions: a) 10.8 mg cephalothin AMC carbamate dissolved in mL of DMSO diluted to 15 mL with buffer A, and b) 11.9 mg cefotaxime AMC carbamate dissolved in 1 mL DMSO diluted to 15 mL with buffer A. For each experiment 0.1 mL of substrate solution was diluted to 3 mL with buffer A. To this was added 0.03 mL of enzyme solution containing (25:1 dilution of the enzyme in buffer A). Fluorescence was read for 300 sec. The rates were determined for both substrates at this concentration for all enzymes tested.
# [2] = target: 104(LYS) mutant β-lactamase (Escherichia coli, UniProt P62593, E102K); test: Kinetic rate determinations, 104(LYS) mutant
# Experimental: as §1, §2, §3
# [3] = target: 237(SER) mutant β-lactamase (Escherichia coli, UniProt P62593, A235S); test: Kinetic rate determinations, 237(SER) mutant
# Experimental: as §1, §2, §3
# [4] = target: 238(SER) mutant β-lactamase (Escherichia coli, UniProt P62593, G236S); test: Kinetic rate determinations, 238(SER) mutant
# Experimental: as §1, §2, §3
# β-lactamase = test: Cleavage of chromogenic substrates, diazonium salt added to reaction mixture; settings: releases 3-aminoindole
# Description: Cleavage of the β-lactam ring of cefotaxime indole carbamate or cephalothin indole carbamate produces a cascade of electron migration which releases 3-aminoindole.
# [5] = system: β-lactamase (wild type and all mutant enzymes); test: Kinetic rate determinations, fluorogenic substrates, all enzymes; settings: by the wild type and all mutant enzymes
# Experimental: as §1
# Fluorescence kinetics were determined on a Perkin-Elmer LS-5 fluorescence spectrometer Perkin-Elmer Corp. (Norwalk, Conn.) for duration of 300 sec. Excitation and emission wavelengths were set to 365 and 440 nm with slits of 10 and 3 nm, respectively. Buffer A was used for all dilutions. […] Rates were determined using the following solutions: a) 10.8 mg cephalothin AMC carbamate dissolved in mL of DMSO diluted to 15 mL with buffer A, and b) 11.9 mg cefotaxime AMC carbamate dissolved in 1 mL DMSO diluted to 15 mL with buffer A. For each experiment 0.1 mL of substrate solution was diluted to 3 mL with buffer A. To this was added 0.03 mL of enzyme solution containing (25:1 dilution of the enzyme in buffer A). Fluorescence was read for 300 sec. The rates were determined for both substrates at this concentration for all enzymes tested.
structure (smiles),measurement,setting,value
"O=C(Cc1cccs1)N[C@@H]1C(=O)N2C(C(=O)O)=C(/C=C/c3ccc([N+](=O)[O-])cc3[N+](=O)[O-])CS[C@H]12 [nitrocefin, Nitrocefin, reference compound]",rate of hydrolysis for nitrocefin,"[1]; wild type, spectrophotometric 504-514 nm",followed by wild type
same,rate of hydrolysis for nitrocefin,"[2]; 104(LYS) mutant, spectrophotometric 504-514 nm, 300 sec, ranking among enzymes",then the 104(LYS) and 238(SER) mutants
same,rate of hydrolysis for nitrocefin,"[3]; spectrophotometric 504-514 nm, 300 sec, ranking among enzymes",fastest
same,rate of hydrolysis for nitrocefin,"[4]; 238(SER) mutant, spectrophotometric 504-514 nm, 300 sec, ranking among enzymes",then the 104(LYS) and 238(SER) mutants
"CO/N=C(\C(=O)N[C@@H]1C(=O)N2C(C(=O)O)=C(COC(=O)Nc3ccc4c(C)cc(=O)oc4c3)CS[C@H]12)c1csc(N)n1 [cefotaxime AMC carbamate, Cefotaxime AMC Carbamate]",rate of cleavage (hydrolysis) of fluorogenic substrate,[1],cleaved most slowly
same,increase in the rate of hydrolysis in comparison to wild type β-lactamase,"[2]; 104(LYS) mutation, fluorescence",greater than 100%
same,increase in hydrolysis rate in comparison to wild type β-lactamase,[3]; fluorescence,60%
same,increase in the rate of hydrolysis in comparison to wild type β-lactamase,"[4]; 238(SER) mutation, fluorescence",greater than 100%
"O=C(Cc1cccs1)N[C@@H]1C(=O)N2C(C(=O)O)=C(COC(=O)Nc3c[nH]c4ccccc34)CS[C@H]12 [cephalothin indole carbamate, Cephalothin Aminoindole Carbamate]",product after cleavage with β-lactamase and addition of various diazonium salts,β-lactamase,produced a colored precipitate
"CO/N=C(\C(=O)N[C@@H]1C(=O)N2C(C(=O)O)=C(COC(=O)Nc3c[nH]c4ccccc34)CS[C@H]12)c1csc(N)n1 [cefotaxime indole carbamate, Cefotaxime Indole Carbamate]",product after cleavage with β-lactamase and addition of various diazonium salts,β-lactamase,produced a colored precipitate
"Cc1cc(=O)oc2cc(NC(=O)OCC3=C(C(=O)O)N4C(=O)[C@@H](NC(=O)Cc5cccs5)[C@H]4SC3)ccc12 [cephalothin AMC carbamate, Cephalothin AMC Carbamate]",rate of cleavage (hydrolysis) of fluorogenic substrate,[1],followed closely by the wild type enzyme
same,rate of cleavage relative to that of the 237(SER) enzyme,"[2]; 104(LYS) mutant, fluorescence 365/440 nm, 300 sec",about half that of the 237(SER) enzyme
same,rate of cleavage (hydrolysis) of fluorogenic substrate,"[3]; fluorescence 365/440 nm, 300 sec, ranking among enzymes",cleaved fastest
same,rate of cleavage (hydrolysis) of fluorogenic substrate,"[4]; 238(SER) mutant, fluorescence 365/440 nm, 300 sec, ranking among enzymes",most slowly
same,rate of cleavage compared between the two fluorogenic substrates,[5],cleaved faster than the cefotaxime AMC carbamate
